Experimental data reported in the NIST ThermoML archive (doi:10.1021/acs.jced.9b00026).
± gives the expanded uncertainty stated by the source.

Legend:
[1] = wn = mass fraction of the nth substance listed; conditions: for surface tension liquid-gas: Ring tensiometer; for mass density: 101 kPa, Liquid, Vibrating tube method
[2] = Ring tensiometer

C[C@H](O)C(=O)O [(S)-2-hydroxypropanoic acid] + O
[1]
Conditions	mass density, w1 = 0.01 [kg/m3]	surface tension liquid-gas, w1 = 0.002 [mN/m]	surface tension liquid-gas, w1 = 0.004 [mN/m]	surface tension liquid-gas, w1 = 0.006 [mN/m]	surface tension liquid-gas, w1 = 0.008 [mN/m]
298 K	999.5 ± 0.6	70.66 ± 0.9	69.69 ± 0.89	68.73 ± 0.88	67.69 ± 0.87
308 K	–	69.32 ± 0.88	68.36 ± 0.87	67.63 ± 0.86	67.06 ± 0.86
318 K	–	68.04 ± 0.87	67.36 ± 0.86	66.46 ± 0.85	65.96 ± 0.85
328 K	–	67.07 ± 0.86	66.17 ± 0.85	65.34 ± 0.84	64.92 ± 0.83

NC(=O)CC[C@H](N)C(=O)O [L-glutamine] + O
[1]
Conditions	mass density, w1 = 0.005 [kg/m3]	surface tension liquid-gas, w1 = 0.00499 [mN/m]	surface tension liquid-gas, w1 = 0.00998 [mN/m]	surface tension liquid-gas, w1 = 0.01501 [mN/m]	surface tension liquid-gas, w1 = 0.02001 [mN/m]	surface tension liquid-gas, w1 = 0.02499 [mN/m]	surface tension liquid-gas, w1 = 0.02999 [mN/m]
298 K	998.8 ± 0.6	71.43 ± 0.91	71.49 ± 0.91	71.53 ± 0.91	71.55 ± 0.91	71.55 ± 0.91	71.55 ± 0.91
308 K	–	69.29 ± 0.88	69.65 ± 0.89	69.78 ± 0.89	69.89 ± 0.89	69.96 ± 0.89	70.02 ± 0.89
318 K	–	68.34 ± 0.87	68.42 ± 0.87	68.59 ± 0.88	68.58 ± 0.88	68.64 ± 0.88	68.67 ± 0.88
328 K	–	66.55 ± 0.85	66.69 ± 0.85	66.76 ± 0.85	66.85 ± 0.86	66.98 ± 0.86	67.04 ± 0.86

CSCC[C@H](N)C(=O)O [L-methionine] + O
[1]
Conditions	mass density, w1 = 0.005 [kg/m3]	surface tension liquid-gas, w1 = 0.005 [mN/m]	surface tension liquid-gas, w1 = 0.01 [mN/m]	surface tension liquid-gas, w1 = 0.02 [mN/m]	surface tension liquid-gas, w1 = 0.03 [mN/m]	surface tension liquid-gas, w1 = 0.04001 [mN/m]
298 K	998.5 ± 0.6	71.39 ± 0.91	71.3 ± 0.91	71.02 ± 0.9	70.77 ± 0.9	70.61 ± 0.9
308 K	–	69.89 ± 0.89	69.69 ± 0.89	69.45 ± 0.89	69.15 ± 0.88	68.9 ± 0.88
318 K	–	68.4 ± 0.87	68.3 ± 0.87	68.06 ± 0.87	67.74 ± 0.87	67.28 ± 0.86
328 K	–	66.65 ± 0.85	66.56 ± 0.85	66.32 ± 0.85	65.78 ± 0.84	64.97 ± 0.83

O=C(O)[C@@H]1CCCN1 [L-proline] + O
[1]
Conditions	mass density, w1 = 0.02 [kg/m3]	surface tension liquid-gas, w1 = 0.01996 [mN/m]	surface tension liquid-gas, w1 = 0.03996 [mN/m]	surface tension liquid-gas, w1 = 0.05995 [mN/m]	surface tension liquid-gas, w1 = 0.07996 [mN/m]	surface tension liquid-gas, w1 = 0.09995 [mN/m]
298 K	1002.6 ± 0.6	71.56 ± 0.91	71.56 ± 0.91	71.55 ± 0.91	71.5 ± 0.91	71.45 ± 0.91
308 K	–	70.14 ± 0.89	70.13 ± 0.89	70.12 ± 0.89	70.05 ± 0.89	69.95 ± 0.89
318 K	–	68.51 ± 0.88	68.51 ± 0.88	68.46 ± 0.88	68.44 ± 0.88	68.4 ± 0.88
328 K	–	66.8 ± 0.86	66.79 ± 0.86	66.75 ± 0.86	66.67 ± 0.85	66.46 ± 0.85

N[C@@H](CO)C(=O)O [L-serine] + O
[1]
Conditions	mass density, w1 = 0.005 [kg/m3]	surface tension liquid-gas, w1 = 0.00504 [mN/m]	surface tension liquid-gas, w1 = 0.01 [mN/m]	surface tension liquid-gas, w1 = 0.02001 [mN/m]	surface tension liquid-gas, w1 = 0.03 [mN/m]	surface tension liquid-gas, w1 = 0.03999 [mN/m]	surface tension liquid-gas, w1 = 0.05 [mN/m]
298 K	999.1 ± 0.6	71.53 ± 0.91	71.64 ± 0.91	71.7 ± 0.91	71.85 ± 0.91	71.98 ± 0.92	72.12 ± 0.92
308 K	–	69.85 ± 0.89	69.98 ± 0.89	70.15 ± 0.89	70.31 ± 0.9	70.44 ± 0.9	70.56 ± 0.9
318 K	–	68.58 ± 0.88	68.6 ± 0.88	68.84 ± 0.88	68.87 ± 0.88	69.09 ± 0.88	69.23 ± 0.88
328 K	–	66.76 ± 0.85	66.84 ± 0.86	67.01 ± 0.86	67.19 ± 0.86	67.28 ± 0.86	67.5 ± 0.86

CC(C)[C@H](N)C(=O)O [L-valine] + O
[1]
Conditions	mass density, w1 = 0.005 [kg/m3]	surface tension liquid-gas, w1 = 0.005 [mN/m]	surface tension liquid-gas, w1 = 0.01 [mN/m]	surface tension liquid-gas, w1 = 0.02 [mN/m]	surface tension liquid-gas, w1 = 0.03 [mN/m]	surface tension liquid-gas, w1 = 0.04 [mN/m]
298 K	998.1 ± 0.6	70.53 ± 0.9	70.5 ± 0.9	69.48 ± 0.89	68.4 ± 0.87	67.12 ± 0.86
308 K	–	69.19 ± 0.88	68.93 ± 0.88	68.17 ± 0.87	67.08 ± 0.86	66.41 ± 0.85
318 K	–	67.61 ± 0.86	67.61 ± 0.86	66.54 ± 0.85	65.36 ± 0.84	64.53 ± 0.83
328 K	–	66.3 ± 0.85	66.02 ± 0.85	65.14 ± 0.84	63.84 ± 0.82	63.26 ± 0.81

CCO [ethanol] + O
surface tension liquid-gas [mN/m], [1]
Conditions	w1 = 0.05	w1 = 0.1	w1 = 0.15	w1 = 0.2
298 K	55.14 ± 0.72	47.34 ± 0.63	41.96 ± 0.57	38.2 ± 0.52
313 K	53.13 ± 0.7	45.92 ± 0.61	40.41 ± 0.55	36.71 ± 0.51

O=C(O)CC(O)C(=O)O (stereo not drawn) [hydroxybutanedioic acid] + O
[1]
Conditions	mass density, w1 = 0.01 [kg/m3]	surface tension liquid-gas, w1 = 0.01049 [mN/m]	surface tension liquid-gas, w1 = 0.02026 [mN/m]	surface tension liquid-gas, w1 = 0.03004 [mN/m]	surface tension liquid-gas, w1 = 0.04002 [mN/m]	surface tension liquid-gas, w1 = 0.06001 [mN/m]	surface tension liquid-gas, w1 = 0.07998 [mN/m]	surface tension liquid-gas, w1 = 0.1 [mN/m]
298 K	1000.8 ± 0.6	71.39 ± 0.91	71.2 ± 0.91	71.09 ± 0.91	70.92 ± 0.9	70.61 ± 0.9	70.44 ± 0.9	70.2 ± 0.9
308 K	–	69.64 ± 0.89	69.49 ± 0.89	69.42 ± 0.89	69.28 ± 0.89	69.18 ± 0.88	68.83 ± 0.88	68.62 ± 0.88
318 K	–	68.16 ± 0.87	68.16 ± 0.87	68.11 ± 0.87	67.78 ± 0.87	67.63 ± 0.87	67.49 ± 0.87	67.25 ± 0.86
328 K	–	66.67 ± 0.85	66.54 ± 0.85	66.48 ± 0.85	66.43 ± 0.85	66.24 ± 0.85	66.05 ± 0.85	65.89 ± 0.85

O [water]
[2]
Conditions	surface tension liquid-gas
298 K	71.52 ± 0.91 mN/m [middle of 7 runs]
308 K	69.73 ± 0.89 mN/m [middle of 7 runs]
313 K	69.89 ± 0.89 mN/m
318 K	68.48 ± 0.87 mN/m [middle of 7 runs]
328 K	66.76 ± 0.85 mN/m [middle of 7 runs]

O [water] + CCO
[1], w2 = 0
Conditions	surface tension liquid-gas [mN/m]
298 K	72.04 ± 0.92
313 K	69.89 ± 0.89

O [water] + CSCC[C@H](N)C(=O)O
[1], w2 = 0
Conditions	surface tension liquid-gas [mN/m]
298 K	71.52 ± 0.91
308 K	69.94 ± 0.89
318 K	68.54 ± 0.88
328 K	66.78 ± 0.85

O [water] + C[C@H](O)C(=O)O
[1], w2 = 0
Conditions	surface tension liquid-gas [mN/m]
298 K	71.53 ± 0.91
308 K	70.02 ± 0.89
318 K	68.48 ± 0.87
328 K	67.18 ± 0.86

O [water] + NC(=O)CC[C@H](N)C(=O)O
[1], w2 = 0
Conditions	surface tension liquid-gas [mN/m]
298 K	71.06 ± 0.9
308 K	69.1 ± 0.88
318 K	68.31 ± 0.87
328 K	66.41 ± 0.85

O [water] + N[C@@H](CO)C(=O)O
[1], w2 = 0
Conditions	surface tension liquid-gas [mN/m]
298 K	71.46 ± 0.91
308 K	69.71 ± 0.89
318 K	68.51 ± 0.87
328 K	66.66 ± 0.85

O [water] + O=C(O)CC(O)C(=O)O
[1], w2 = 0
Conditions	surface tension liquid-gas [mN/m]
298 K	71.52 ± 0.91
308 K	69.73 ± 0.89
318 K	68.3 ± 0.87
328 K	66.81 ± 0.85

O [water] + O=C(O)[C@@H]1CCCN1
[1], w2 = 0
Conditions	surface tension liquid-gas [mN/m]
298 K	71.61 ± 0.91
308 K	70.1 ± 0.89
318 K	68.56 ± 0.88
328 K	66.76 ± 0.85
